We go through 1 substance from patent publication US12611380B2, “Solution and method for reducing the virulence of viruses, bacteria, yeasts, or fungus” (priority 2020, dated 2026).

Assay [1] concerns viral illnesses such as pharyngitis and rhinorrhea. The experiment in a line: ILCS spray or wash for the nasopharynx cavity. The format is in vivo. The settings on record: 2-50 mM ILCS spray or wash.
The nature of assay [2]: Clinical observation on washing with ILPS. The format is in vivo. The settings on record: general cosmetic use.

In the case of “potassium salt of isomerized linoleic acid [ILCS]”, the “symptoms associated with viral illnesses” value in assay [1] was “reduced symptoms”. The acne entry in assay [2] is listed as “clinical remission of acne”.
